A short description of one data set: Solubility. The class given is physicochemical.
Data set [1] concerns the target T1, catecholamine-O-methyltransferase (COMT), human liver enzyme (Homo sapiens, UniProt P21964).
T1 construct: prepared from human liver; from tissue; host or cells: human liver, crude enzyme
T1 sequence (P21964 1-221 isoform P21964-2): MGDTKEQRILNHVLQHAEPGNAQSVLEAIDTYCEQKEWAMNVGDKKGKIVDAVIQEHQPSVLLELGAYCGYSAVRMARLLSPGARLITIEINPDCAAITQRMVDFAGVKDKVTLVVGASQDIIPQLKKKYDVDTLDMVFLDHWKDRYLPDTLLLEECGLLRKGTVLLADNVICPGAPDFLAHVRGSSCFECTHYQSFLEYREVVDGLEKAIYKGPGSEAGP
Description: COMT inhibitory activity (O-methylation of 1,2-dihydroxybenzene with S-adenosyl-L-[methyl-3H]methionine, crude human liver enzyme). The class given is biochemical. As to conditions: COMT inhibition; crude enzyme from human liver (8.3 μg protein); pH 8.0; 37° C., 30 minutes; 100 μM 1,2-dihydroxybenzene. On the procedure: The assay mixture (120 μl) in a mini scintillation vial contained 68 mM K-PO4 buffer (pH 8.0), 10 mM MgCl2, 2.2 mM dithiothreitol, 7.8 U/ml adenosine deaminase, 5 mM EGTA, 100 μM 1,2-dihydroxybenzene, 183 μM S-adenosyl-L-[methyl-^3 H] […] Ci/mol, Amersham) and human liver enzyme. In the standard assay, 5 μl of inhibitor was added to the incubation mixture and the reaction was started with the supplementation of crude enzyme (8.3 μg protein) prepared from human liver. After incubation at 37° C. for 30 minutes, the reaction was stopped by immersion of the vials in ice water. 100 μl of 1M guaiacol HCl was added and the samples were extracted with 2 ml of a scintillation cocktail of hexane/toluene (4:1). The radioactivity of O^3 H-methylated products were measured by a liquid scintillation counter (LSC1100, Aloka).

A further data set in a line: Acute toxicity. As to conditions: in vivo.

pIC50: −log10 of the molar value.

`COc1c(O)cc2cc(C(=O)O)cc(O)c(=O)c2c1O` [8-O-methylpurpurogallincarboxylic acid]: the figures for the Solubility entry in the data set “Solubility” (in Dimethylsulfoxide (DMSO)), in the data set “Solubility” (in H2 O) and in the data set “Solubility” (in Methanol) were “Soluble”, “Slightly soluble” and “Soluble”, respectively. In data set [1], this compound had a pIC50 of 5.65. Further, in the data set “Acute toxicity”, the Acute toxicity result was “not observed”.

Turning to `CCCOC(=O)c1cc(O)c(O)c(O)c1` [Propyl gallate], the pIC50 in data set [1] was 6.34.

For the compound `O=c1cccccc1O` [Tropolone], the pIC50 in data set [1] is 3.02.

Broadly, the pIC50 is −log10 of the IC50, conventionally taken in molar units.

Source of the values: patent US5814512A, “Microorganism having all the identifying characteristics of absida ferm BP-4599 for producing purpurogallin derivatives” (Hoffmann-La Roche Inc., priority 1994, dated 1998).
